According to patent US12660819B2, “Herbicidal derivatives” (SYNGENTA CROP PROTECTION AG, priority 2020, dated 2026):

Key:
Format in all cases: in vivo
[1] = test system: Amaranthus retoflexus (AMARE); assay: Post-emergence Test (glasshouse, percentage damage to the plant); conditions: post-emergence spray, 1000 g/ha unless otherwise stated, evaluated after 13 days
Procedure: (§1) Seeds of a variety of test species are sown in standard soil in pots (Amaranthus retoflexus (AMARE), Solanum nigrum (SOLNI), Setaria faberi (SETFA), Lolium perenne (LOLPE), Echinochloa crus-galli (ECHCG), Ipomoea hederacea (IPOHE), Abutilon theophrasti (ABUTH), Zea mays (ZEAMX), Amaranthus palmeri (AMAPA). After 8 days cultivation under controlled conditions in a glasshouse (at 24° C./16° C., day/night; 14 hours light; 65% humidity), the plants are sprayed with an aqueous spray solution derived from the formulation of the technical active ingredient in acetone/water (50:50) solution containing 0.5% Tween 20 (polyoxyethelyene sorbitan monolaurate, CAS RN 9005-64-5). Compounds are applied at 1000 g/ha unless otherwise stated. The test plants are then grown in a glasshouse under controlled conditions in a glasshouse (at 24° C./16° C., day/night; 14 hours light; 65% humidity) and watered twice daily. After 13 days the test is evaluated for the percentage damage caused to the plant. The biological activities are shown in the following table on a five-point scale (5=81-100%; 4=61-80%; 3=41-60%; 2=21-40%; 1=0-20%).

[2] = test system: Ipomoea hederacea (IPOHE); assay: as above; conditions: post-emergence spray, 1000 g/ha unless otherwise stated, evaluated after 13 days
Procedure: as §1

Setaria faberi (SETFA) [3] = assay: as above; conditions: post-emergence spray, 1000 g/ha unless otherwise stated, evaluated after 13 days
Procedure: as §1

Zea mays (ZEAMX) [4] = assay: as above; conditions: post-emergence spray, 1000 g/ha unless otherwise stated, evaluated after 13 days
Procedure: as §1

[5] = test system: Amaranthus retoflexus (AMARE); assay: Pre-emergence Test (glasshouse, percentage damage to the plant); conditions: 1000 g/ha unless otherwise stated, five-point scale
Setaria faberi (SETFA) [6] = assay: as above; conditions: 1000 g/ha unless otherwise stated, five-point scale
[7] = test system: Echinochloa crus-galli (ECHCG); assay: as above; conditions: 1000 g/ha unless otherwise stated, five-point scale
[8] = test system: Ipomoea hederacea (IPOHE); assay: as above; conditions: 1000 g/ha unless otherwise stated, five-point scale
[9] = test system: Abutilon theophrasti (ABUTH); assay: as above; conditions: 1000 g/ha unless otherwise stated, five-point scale
Zea mays (ZEAMX) [10] = assay: as above; conditions: 1000 g/ha unless otherwise stated, five-point scale

| SMILES | Post-emergence Test AMARE, percentage damage to the plant (five-point scale) [1] | Post-emergence Test IPOHE, percentage damage to the plant (five-point scale) [2] | Post-emergence Test SETFA, percentage damage to the plant (five-point scale) (Setaria faberi (SETFA) [3]) | Post-emergence Test ZEAMX, percentage damage to the plant (five-point scale) (Zea mays (ZEAMX) [4]) | percentage damage to the plant, AMARE [5] | percentage damage to the plant, SETFA (Setaria faberi (SETFA) [6]) | percentage damage to the plant, ECHCG [7] | percentage damage to the plant, IPOHE [8] | percentage damage to the plant, ABUTH [9] | percentage damage to the plant, ZEAMX (Zea mays (ZEAMX) [10]) |
| --- | --- | --- | --- | --- | --- | --- | --- | --- | --- | --- |
| CCn1c(C)c(-c2cccc(C(F)(F)F)c2)c(=O)c(C(=O)O)c1-c1ccnc(Cl)c1 [Compound 145, 2-(2-chloro-4-pyridyl)-1-ethyl-6-methyl-4-oxo-5-[3-(trifluoromethyl)phenyl] pyridine-3-carboxylic acid] | 1 (1=0-20%) | 2 (2=21-40%) | 3 (3=41-60%) | 1 (1=0-20%) | 1 (1=0-20%) | 3 (3=41-60%) | 2 (2=21-40%) | 0 | 1 (1=0-20%) | 0 |
| CCn1c(C)c(-c2cccc(C(F)(F)F)c2F)c(=O)c(C(=O)O)c1-c1ccc(Cl)cc1 [Compound 181, 2-(4-chlorophenyl)-1-ethyl-5-[2-fluoro-3-(trifluoromethyl)phenyl]-6-methyl-4-oxo-pyridine-3-carboxylic acid] | 3 (3=41-60%) | 2 (2=21-40%) | 3 (3=41-60%) | 1 (1=0-20%) | 1 (1=0-20%) | 5 (5=81-100%) | 4 (4=61-80%) | 4 (4=61-80%) | 4 (4=61-80%) | 2 (2=21-40%) |
| CCn1c(C)c(-c2cc(C)c(Cl)c(C)c2)c(=O)c(C(=O)O)c1-c1ccc(Cl)cc1 [Compound 197, 5-(4-chloro-3,5-dimethyl-phenyl)-2-(4-chlorophenyl)-1-ethyl-6-methyl-4-oxo-pyridine-3-carboxylic acid] | 1 (1=0-20%) | 2 (2=21-40%) | 1 (1=0-20%) | 1 (1=0-20%) | 0 | 0 | 0 | 0 | 0 | 0 |
| CCn1c(C)c(-c2cc(C(F)(F)F)ccc2Cl)c(=O)c(C(=O)O)c1-c1ccc(Cl)cc1 [Compound 183, 2-(4-chlorophenyl)-5-[2-chloro-5-(trifluoromethyl)phenyl]-1-ethyl-6-methyl-4-oxo-pyridine-3-carboxylic acid] | 3 (3=41-60%) | 3 (3=41-60%) | 2 (2=21-40%) | 3 (3=41-60%) | 0 | 0 | 0 | 0 | 0 | 0 |
| CCn1c(C)c(-c2ccc(Cl)c(Cl)c2)c(=O)c(C(=O)O)c1-c1ccc(Cl)cc1 [Compound 195, 2-(4-chlorophenyl)-5-(3,4-dichlorophenyl)-1-ethyl-6-methyl-4-oxo-pyridine-3-carboxylic acid] | 4 (4=61-80%) | 3 (3=41-60%) | 2 (2=21-40%) | 2 (2=21-40%) | 2 (2=21-40%) | 1 (1=0-20%) | 2 (2=21-40%) | 0 | 0 | 0 |
| CCn1c(C)c(-c2ccc(Cl)cc2Cl)c(=O)c(C(=O)O)c1-c1ccc(Cl)cc1 [Compound 193, 2-(4-chlorophenyl)-5-(2,4-dichlorophenyl)-1-ethyl-6-methyl-4-oxo-pyridine-3-carboxylic acid] | 5 (5=81-100%) | 3 (3=41-60%) | 4 (4=61-80%) | 2 (2=21-40%) | 2 (2=21-40%) | 2 (2=21-40%) | 1 (1=0-20%) | 0 | 2 (2=21-40%) | 1 (1=0-20%) |
| CCn1c(-c2ccc(Cl)c(Cl)c2)c(C(=O)OC)c(=O)c(-c2ccc(Cl)cc2)c1C(F)(F)F [Compound 169, methyl 5-(4-chlorophenyl)-2-(3,4-dichlorophenyl)-1-ethyl-4-oxo-6-(trifluoromethyl) pyridine-3-carboxylate] | 1 (1=0-20%) | 0 | 0 | 1 (1=0-20%) | 0 | 0 | 0 | 0 | 0 | 0 |
| CCn1c(C)c(-c2ccc([N+](=O)[O-])cc2)c(=O)c(C(=O)O)c1-c1ccc(Cl)cc1 [Compound 194, 2-(4-chlorophenyl)-1-ethyl-6-methyl-5-(4-nitrophenyl)-4-oxo-pyridine-3-carboxylic acid] | 0 | 0 | 2 (2=21-40%) | 1 (1=0-20%) | 0 | 0 | 0 | 0 | 0 | 2 (2=21-40%) |
| CCn1c(C)c(-c2cc(Cl)ccc2Cl)c(=O)c(C(=O)O)c1-c1ccc(Cl)cc1 [Compound 185, 2-(4-chlorophenyl)-5-(2,5-dichlorophenyl)-1-ethyl-6-methyl-4-oxo-pyridine-3-carboxylic acid] | 3 (3=41-60%) | 2 (2=21-40%) | 3 (3=41-60%) | 1 (1=0-20%) | 0 | 0 | 0 | 0 | 0 | 0 |
| CCn1c(C)c(-c2ccc(C(F)(F)F)cc2)c(=O)c(C(=O)O)c1-c1ccnc(Cl)c1 [Compound 140, 2-(2-chloro-4-pyridyl)-1-ethyl-6-methyl-4-oxo-5-[4-(trifluoromethyl)phenyl] pyridine-3-carboxylic acid] | 1 (1=0-20%) | 3 (3=41-60%) | 4 (4=61-80%) | 1 (1=0-20%) | 1 (1=0-20%) | 2 (2=21-40%) | 2 (2=21-40%) | 1 (1=0-20%) | 1 (1=0-20%) | 0 |
| CCn1c(C)c(-c2ccc(C(F)(F)F)c(Cl)c2)c(=O)c(C(=O)O)c1-c1ccc(Cl)cc1 [Compound 171, 2-(4-chlorophenyl)-5-[3-chloro-4-(trifluoromethyl)phenyl]-1-ethyl-6-methyl-4-oxo-pyridine-3-carboxylic acid] | 3 (3=41-60%) | 4 (4=61-80%) | 3 (3=41-60%) | 2 (2=21-40%) | 0 | 0 | 1 (1=0-20%) | 1 (1=0-20%) | 0 | 0 |
